System: MV-4-11 cells
Assay: Gene expression microarray analysis (Affymetrix PrimeView) and GSEA
Assay type: cell-based, human
Design: RFU PODN (11730768_x_at) / Fold change /veh PODN (11730768_x_at) / RFU LINC00158 (11744669_a_at) / Fold change /veh LINC00158 (11744669_a_at) / RFU DUSP10 (11751237_a_at) / Fold change /veh DUSP10 (11751237_a_at) / RFU ID3 (11757404_x_at) / Fold change /veh ID3 (11757404_x_at) / RFU PLEKHG5 (11737974_s_at) / Fold change /veh PLEKHG5 (11737974_s_at) / RFU LRRC4B (11730491_at) / Fold change /veh LRRC4B (11730491_at) / RFU GIMAP4 (11747438_a_at) / Fold change /veh GIMAP4 (11747438_a_at) / RFU KRT8 (11758183_x_at) / Fold change /veh KRT8 (11758183_x_at) / RFU CNN1 (11734310_a_at) / Fold change /veh CNN1 (11734310_a_at) / RFU VPS37D (11726825_at) / Fold change /veh VPS37D (11726825_at) / RFU C10orf10 (11716522_x_at) / Fold change /veh C10orf10 (11716522_x_at) / RFU KIR2DL2 /// KIR2DL4 /// KIR2DL5A /// KIR2DL5B /// KIR2DS1 /// KIR2DS2 /// KIR2DS3 /// KIR2DS4 /// KIR3DL3 /// KIR3DL3 /// KIR3DS1 (11738374_at) / Fold change /veh KIR2DL2 /// KIR2DL4 /// KIR2DL5A /// KIR2DL5B /// KIR2DS1 /// KIR2DS2 /// KIR2DS3 /// KIR2DS4 /// KIR3DL3 /// KIR3DL3 /// KIR3DS1 (11738374_at) / RFU C1QL1 (11718748_at) / Fold change /veh C1QL1 (11718748_at) / RFU TMPRSS4 (11747572_a_at) / Fold change /veh TMPRSS4 (11747572_a_at) / RFU HAMP (11756126_x_at) / Fold change /veh HAMP (11756126_x_at) / RFU RNFT2 (11725882_a_at) / Fold change /veh RNFT2 (11725882_a_at) / RFU NR4A2 (11747474_a_at) / Fold change /veh NR4A2 (11747474_a_at) / RFU ABCC12 (11746883_a_at) / Fold change /veh ABCC12 (11746883_a_at) / RFU TMEM136 (11760407_x_at) / Fold change /veh TMEM136 (11760407_x_at) / RFU CLDN22 /// WWC2 (11732394_at) / Fold change /veh CLDN22 /// WWC2 (11732394_at) / RFU HLA-DPB1 (11760878_x_at) / Fold change /veh HLA-DPB1 (11760878_x_at) / RFU SPINT1 (11716480_a_at) / Fold change /veh SPINT1 (11716480_a_at) / RFU GAP43 (11754022_s_at) / Fold change /veh GAP43 (11754022_s_at) / RFU A4GNT (11735810_at) / Fold change /veh A4GNT (11735810_at) / RFU PRB3 (11715151_x_at) / Fold change /veh PRB3 (11715151_x_at) / RFU TUBB4B (11761932_at) / Fold change /veh TUBB4B (11761932_at) / RFU CAPN14 (11732068_a_at) / Fold change /veh CAPN14 (11732068_a_at) / RFU TMCC2 (11721928_a_at) / Fold change /veh TMCC2 (11721928_a_at) / RFU IRGQ (11745062_a_at) / Fold change /veh IRGQ (11745062_a_at) / RFU FAM174B (11720279_a_at) / Fold change /veh FAM174B (11720279_a_at) / RFU TMPRSS4 (11748680_a_at) / Fold change /veh TMPRSS4 (11748680_a_at) / RFU FAM212B (11763350_a_at) / Fold change /veh FAM212B (11763350_a_at) / RFU PLEKHG5 (11743358_a_at) / Fold change /veh PLEKHG5 (11743358_a_at) / RFU ZSCAN30 (11745921_a_at) / Fold change /veh ZSCAN30 (11745921_a_at) / RFU CMKLR1 (11741424_a_at) / Fold change /veh CMKLR1 (11741424_a_at) / RFU LOC101060620 /// MAPK8IP1 (11723275_at) / Fold change /veh LOC101060620 /// MAPK8IP1 (11723275_at) / RFU SPTSSB (11747773_x_at) / Fold change /veh SPTSSB (11747773_x_at) / RFU PRSS12 (11739890_at) / Fold change /veh PRSS12 (11739890_at) / RFU BIN1 (11741810_x_at) / Fold change /veh BIN1 (11741810_x_at) / RFU WNT11 (11732464_a_at) / Fold change /veh WNT11 (11732464_a_at) / RFU C10orf10 (11716521_a_at) / Fold change /veh C10orf10 (11716521_a_at) / RFU C5orf56 (11738089_at) / Fold change /veh C5orf56 (11738089_at) / RFU CYB561 (11721691_x_at) / Fold change /veh CYB561 (11721691_x_at) / RFU ANKRD19P (11752326_a_at) / Fold change /veh ANKRD19P (11752326_a_at) / RFU OR2T12 /// OR2T33 /// OR2T8 (11738714_s_at) / Fold change /veh OR2T12 /// OR2T33 /// OR2T8 (11738714_s_at) / RFU VCAN (11748164_a_at) / Fold change /veh VCAN (11748164_a_at) / RFU JSRP1 (11732532_at) / Fold change /veh JSRP1 (11732532_at) / RFU KRTAP10-11 (11738290_x_at) / Fold change /veh KRTAP10-11 (11738290_x_at) / RFU MYO3A (11730013_a_at) / Fold change /veh MYO3A (11730013_a_at) / RFU EBF3 (11725865_a_at) / Fold change /veh EBF3 (11725865_a_at) / RFU CAMK2N1 (11719241_x_at) / Fold change /veh CAMK2N1 (11719241_x_at) / RFU C5orf56 (11738088_a_at) / Fold change /veh C5orf56 (11738088_a_at) / RFU OLFML3 (11715873_a_at) / Fold change /veh OLFML3 (11715873_a_at) / RFU LOC100653217 /// NTM (11731650_a_at) / Fold change /veh LOC100653217 /// NTM (11731650_a_at) / RFU MAPK11 (11762145_a_at) / Fold change /veh MAPK11 (11762145_a_at) / RFU FIZ1 (11724087_x_at) / Fold change /veh FIZ1 (11724087_x_at) / RFU OASL (11726364_x_at) / Fold change /veh OASL (11726364_x_at) / RFU SOX15 (11748057_x_at) / Fold change /veh SOX15 (11748057_x_at) / RFU CD79A (11719716_a_at) / Fold change /veh CD79A (11719716_a_at) / RFU HIST1H1D (11736915_at) / Fold change /veh HIST1H1D (11736915_at) / RFU CASKIN2 (11723855_a_at) / Fold change /veh CASKIN2 (11723855_a_at) / RFU LOC730098 (11760151_x_at) / Fold change /veh LOC730098 (11760151_x_at) / RFU OR4N2 (11742367_at) / Fold change /veh OR4N2 (11742367_at) / RFU PRRT2 (11749266_a_at) / Fold change /veh PRRT2 (11749266_a_at) / RFU SNX32 (11753110_a_at) / Fold change /veh SNX32 (11753110_a_at) / RFU CDHR5 (11726645_a_at) / Fold change /veh CDHR5 (11726645_a_at) / RFU RCAN1 (11760418_a_at) / Fold change /veh RCAN1 (11760418_a_at) / RFU FAM167A (11723789_a_at) / Fold change /veh FAM167A (11723789_a_at) / RFU FAM26E (11764081_at) / Fold change /veh FAM26E (11764081_at) / RFU ISYNA1 (11749810_s_at) / Fold change /veh ISYNA1 (11749810_s_at) / RFU ACY1 (11761880_at) / Fold change /veh ACY1 (11761880_at) / RFU 11764098_at / Fold change /veh 11764098_at / RFU SAMD14 (11745864_x_at) / Fold change /veh SAMD14 (11745864_x_at) / RFU NPB (11741838_a_at) / Fold change /veh NPB (11741838_a_at) / RFU TMPRSS6 (11731388_a_at) / Fold change /veh TMPRSS6 (11731388_a_at) / RFU KRTAP10-2 (11738614_at) / Fold change /veh KRTAP10-2 (11738614_at) / RFU ARHGAP8 /// PRR5-ARHGAP8 (11727945_x_at) / Fold change /veh ARHGAP8 /// PRR5-ARHGAP8 (11727945_x_at) / RFU KRTAP5-7 /// NADSYN1 (11734609_at) / Fold change /veh KRTAP5-7 /// NADSYN1 (11734609_at) / RFU RASL12 (11751679_a_at) / Fold change /veh RASL12 (11751679_a_at) / RFU CDKN2B (11736163_a_at) / Fold change /veh CDKN2B (11736163_a_at) / RFU PRF1 (11729649_at) / Fold change /veh PRF1 (11729649_at) / RFU, ZNF638 /// ZNF638-IT1 / Fold change vs veh, ZNF638 /// ZNF638-IT1 / RFU, PANK3 / Fold change vs veh, PANK3 / RFU, SH3YL1 / Fold change vs veh, SH3YL1 / RFU, ZEB2 / Fold change vs veh, ZEB2 / RFU, NRIP1 / Fold change vs veh, NRIP1 / RFU, PTTG1IP / Fold change vs veh, PTTG1IP / RFU, CAPN2 / Fold change vs veh, CAPN2 / RFU, MED14 / Fold change vs veh, MED14 / RFU, SNORA58 / Fold change vs veh, SNORA58 / RFU, C1orf63 / Fold change vs veh, C1orf63 / RFU, LRRFIP1 / Fold change vs veh, LRRFIP1 / RFU, NDUFAF7 / Fold change vs veh, NDUFAF7 / RFU, SLC12A2 / Fold change vs veh, SLC12A2 / RFU, IBTK / Fold change vs veh, IBTK / RFU, ESF1 / Fold change vs veh, ESF1 / Fold change vs veh, TMEM50B / RFU, TAOK1 / Fold change vs veh, TAOK1 / RFU, ACBD3 / Fold change vs veh, ACBD3 / RFU, TMA16 / Fold change vs veh, TMA16 / RFU, RWDD3 / Fold change vs veh, RWDD3 / RFU, BCAT1 / Fold change vs veh, BCAT1 / RFU, EDEM3 / Fold change vs veh, EDEM3 / RFU, TMEM33 / Fold change vs veh, TMEM33 / RFU, WDR75 / Fold change vs veh, WDR75 / RFU, AHCTF1 / Fold change vs veh, AHCTF1 / RFU, TFRC / Fold change vs veh, TFRC / RFU, ZDHHC17 / Fold change vs veh, ZDHHC17 / RFU, NOM1 / Fold change vs veh, NOM1 / RFU, ARL8B / Fold change vs veh, ARL8B / RFU, ZBTB11 / Fold change vs veh, ZBTB11 / RFU, TAMM41 / Fold change vs veh, TAMM41 / RFU, KIAA1704 /// LOC100996395 / Fold change vs veh, KIAA1704 /// LOC100996395 / RFU, ING1 / Fold change vs veh, ING1 / RFU, TRMT61B / Fold change vs veh, TRMT61B / RFU, FUBP3 / Fold change vs veh, FUBP3 / RFU, TP53 / Fold change vs veh, TP53 / RFU, TNKS2 / Fold change vs veh, TNKS2 / RFU, ZFP14 / Fold change vs veh, ZFP14 / RFU, ACTR2 / Fold change vs veh, ACTR2 / RFU, PPP3R1 / Fold change vs veh, PPP3R1 / RFU, PIK3R1 / Fold change vs veh, PIK3R1 / RFU, HNRNPA1 / Fold change vs veh, HNRNPA1 / RFU, RNF170 / Fold change vs veh, RNF170 / RFU, ZNF28 / Fold change vs veh, ZNF28 / RFU, RNGTT / Fold change vs veh, RNGTT / RFU, OGT / Fold change vs veh, OGT / RFU, BRD1 / Fold change vs veh, BRD1 / RFU, MARS / Fold change vs veh, MARS / RFU, ZNF655 / Fold change vs veh, ZNF655 / RFU, FAHD1 / Fold change vs veh, FAHD1 / RFU, BDP1 / Fold change vs veh, BDP1 / RFU, LRRCC1 / Fold change vs veh, LRRCC1 / RFU, ARID1A / Fold change vs veh, ARID1A / RFU, ZNF146 / Fold change vs veh, ZNF146 / RFU, ZNF330 / Fold change vs veh, ZNF330 / RFU, GPN3 / Fold change vs veh, GPN3 / RFU, C9orf123 / Fold change vs veh, C9orf123 / RFU, N4BP2L2 / Fold change vs veh, N4BP2L2 / RFU, ARFIP1 / Fold change vs veh, ARFIP1 / RFU, FAM179B / Fold change vs veh, FAM179B / RFU, BCL10 / Fold change vs veh, BCL10 / RFU, UHRF1BP1L / Fold change vs veh, UHRF1BP1L / RFU, BET1 / Fold change vs veh, BET1 / RFU, CNOT2 / Fold change vs veh, CNOT2 / RFU, ZNF268 / Fold change vs veh, ZNF268 / Fold change vs veh, ZNF507 / RFU, DGCR2 / Fold change vs veh, DGCR2 / RFU, WDSUB1 / Fold change vs veh, WDSUB1 / Fold change vs veh, HSP90B1 /// MIR3652 / RFU, ADSS / Fold change vs veh, ADSS / RFU, GK / Fold change vs veh, GK / RFU, ZNF148 / Fold change vs veh, ZNF148 / RFU, TAF9 / Fold change vs veh, TAF9 / RFU, SLC1A5 / Fold change vs veh, SLC1A5 / RFU, SLMO2 / Fold change vs veh, SLMO2 / RFU, ABCC4 / Fold change vs veh, ABCC4 / RFU, LOC101060439 /// RAP1B / Fold change vs veh, LOC101060439 /// RAP1B / RFU, RFX7 / Fold change vs veh, RFX7 / RFU, GTPBP10 / Fold change vs veh, GTPBP10 / RFU, CNEP1R1 / Fold change vs veh, CNEP1R1 / RFU, BIVM-ERCC5 /// ERCC5 / Fold change vs veh, BIVM-ERCC5 /// ERCC5 / RFU, ILF3 / Fold change vs veh, ILF3 / RFU 11762660_at / Fold change /veh 11762660_at / RFU VCAN (11757783_s_at) / Fold change /veh VCAN (11757783_s_at) / RFU DDX43 (11728927_at) / Fold change /veh DDX43 (11728927_at) / RFU KRT8 (11758188_x_at) / Fold change /veh KRT8 (11758188_x_at) / RFU NKD1 (11759106_at) / Fold change /veh NKD1 (11759106_at) / RFU SRD5A1 (11742802_a_at) / Fold change /veh SRD5A1 (11742802_a_at) / RFU TPSAB1 /// TPSB2 (11721975_s_at) / Fold change /veh TPSAB1 /// TPSB2 (11721975_s_at) / RFU GSTM3 (11746129_a_at) / Fold change /veh GSTM3 (11746129_a_at) / RFU IL23R (11737362_x_at) / Fold change /veh IL23R (11737362_x_at) / RFU TMEM51 (11727254_a_at) / Fold change /veh TMEM51 (11727254_a_at) / RFU PIWIL2 (11732686_x_at) / Fold change /veh PIWIL2 (11732686_x_at) / RFU ORM1 (11744905_x_at) / Fold change /veh ORM1 (11744905_x_at) / RFU CCDC152 (11743942_at) / Fold change /veh CCDC152 (11743942_at) / RFU ECM1 (11717891_a_at) / Fold change /veh ECM1 (11717891_a_at) / RFU IL23R (11748794_a_at) / Fold change /veh IL23R (11748794_a_at) / RFU TNFAIP8L3 (11732012_x_at) / Fold change /veh TNFAIP8L3 (11732012_x_at) / RFU MBOAT4 (11741988_at) / Fold change /veh MBOAT4 (11741988_at) / RFU 11764193_at / Fold change /veh 11764193_at / RFU TMEM53 (11763286_at) / Fold change /veh TMEM53 (11763286_at) / RFU MAGEB2 (11727129_at) / Fold change /veh MAGEB2 (11727129_at) / RFU TMEM200A (11744735_a_at) / Fold change /veh TMEM200A (11744735_a_at) / RFU CCDC152 (11751479_a_at) / Fold change /veh CCDC152 (11751479_a_at) / RFU FAM211A (11726209_a_at) / Fold change /veh FAM211A (11726209_a_at) / RFU RGS16 (11746705_a_at) / Fold change /veh RGS16 (11746705_a_at) / RFU VCAN (11755009_s_at) / Fold change /veh VCAN (11755009_s_at) / RFU RHOB (11743442_s_at) / Fold change /veh RHOB (11743442_s_at) / RFU RGS16 (11720943_a_at) / Fold change /veh RGS16 (11720943_a_at) / RFU RGS16 (11720944_at) / Fold change /veh RGS16 (11720944_at) / RFU, VPS4B / Fold change vs veh, VPS4B / RFU, CREB1 / Fold change vs veh, CREB1 / RFU, DNAJC13 / Fold change vs veh, DNAJC13 / RFU, GNAQ / Fold change vs veh, GNAQ / RFU, CDK5R1 / Fold change vs veh, CDK5R1 / RFU, ZRANB3 / Fold change vs veh, ZRANB3 / RFU, CUL4A / Fold change vs veh, CUL4A / RFU, CCNY / Fold change vs veh, CCNY / RFU, UFL1 / Fold change vs veh, UFL1 / RFU, COG3 / Fold change vs veh, COG3 / RFU, DIAPH2 / Fold change vs veh, DIAPH2 / RFU, SKA2 / Fold change vs veh, SKA2 / RFU, AFF3 / Fold change vs veh, AFF3 / RFU, LMF1 / Fold change vs veh, LMF1 / RFU, IPO11 / Fold change vs veh, IPO11 / RFU, DFFB / Fold change vs veh, DFFB / RFU, FOXP1 / Fold change vs veh, FOXP1 / RFU, CARD8 / Fold change vs veh, CARD8 / RFU, STRN3 / Fold change vs veh, STRN3 / RFU, ADK / Fold change vs veh, ADK / RFU, RASSF2 / Fold change vs veh, RASSF2 / RFU, WIPF1 / Fold change vs veh, WIPF1 / RFU, LARP1B / Fold change vs veh, LARP1B / RFU, RASA1 / Fold change vs veh, RASA1 / RFU, RB1 / Fold change vs veh, RB1 / RFU, PPFIA1 / Fold change vs veh, PPFIA1 / RFU, MAT2A / Fold change vs veh, MAT2A / RFU, CCT5 / Fold change vs veh, CCT5 / RFU, WDR92 / Fold change vs veh, WDR92 / RFU, CUX1 / Fold change vs veh, CUX1 / RFU, TTC7A / Fold change vs veh, TTC7A / RFU, TMEM135 / Fold change vs veh, TMEM135 / RFU, DEPTOR / Fold change vs veh, DEPTOR / RFU, CPM / Fold change vs veh, CPM / RFU, DNAJB6 / Fold change vs veh, DNAJB6 / RFU, CACNA2D3 / Fold change vs veh, CACNA2D3 / RFU, DTX4 / Fold change vs veh, DTX4 / RFU, TFCP2 / Fold change vs veh, TFCP2 / RFU, GMCL1 /// GMCL1P1 / Fold change vs veh, GMCL1 /// GMCL1P1 / RFU, AEBP2 / Fold change vs veh, AEBP2 / RFU, SNHG1 /// SNORD22 /// SNORD25 /// SNORD26 /// SNORD27 /// SNORD28 /// SNORD29 /// SNORD31 / Fold change vs veh, SNHG1 /// SNORD22 /// SNORD25 /// SNORD26 /// SNORD27 /// SNORD28 /// SNORD29 /// SNORD31 / Fold change (Aza/veh), C12orf56 (ProbeSet 11735607_a_at) / Fold change (ACY-1035/veh), C12orf56 (ProbeSet 11735607_a_at) / Fold change (Aza/veh), FGFR1OP (ProbeSet 11751329_s_at) / Fold change (ACY-1035/veh), FGFR1OP (ProbeSet 11751329_s_at) / Fold change (Aza/veh), VPS36 (ProbeSet 11739960_a_at) / Fold change (ACY-1035/veh), VPS36 (ProbeSet 11739960_a_at) / RFU SYPL1 (11715823_x_at) / Fold change /veh SYPL1 (11715823_x_at) / RFU IGFBP7 (11715501_s_at) / Fold change /veh IGFBP7 (11715501_s_at) / RFU REEP3 (11722064_at) / Fold change /veh REEP3 (11722064_at) / RFU IGLL1 (11728026_x_at) / Fold change /veh IGLL1 (11728026_x_at): dose or concentration left out as unconfirmed
Conditions: ProbeSet 11724877_a_at; LIST D

Nc1ncn([C@@H]2O[C@H](CO)[C@@H](O)[C@H]2O)c(=O)n1 [azacitidine]
Fold change vs veh, AEBP2: 0.82

Source: publication PMC5218480 (PLoS ONE, 2017)
